Data on 29 compounds can be found in patent US11078192B2, “Aromatic acetylene or aromatic ethylene compound, intermediate, preparation method, pharmaceutical composition and use thereof” (GUANGZHOU MAXINOVEL PHARMACEUTICALS CO., LTD., priority 2016, dated 2021).

This experiment concerns the target PD-1/PD-L1 (Homo sapiens (Human), UniProt Q9NZQ7). As to the kind of experiment: Homogeneous Time-Resolved Fluorescence (HTRF) binding assay. Conditions: CisBio kit #64CUS000C-1, read-out: IC50 of compounds binding to PD-1/PD-L1. Here is the method:
Homogeneous Time-Resolved Fluorescence (HTRF) binding assay was used to determine the binding activity of the compound of the present invention to PD-1/PD-L1.
The purchased kit (CisBio, #64CUS000C-1) contained reagents required for assays such as PD-1, PD-L1, anti-tag1-Eu, Anti-tag2-XL665, Dilute Buffer, and Detection Buffer.
1. The compound was formulated to 10 concentrations with a 3-fold gradient with 100% DMSO.
2. The solution of the compound in DMSO was added to Dilute Buffer, mixed thoroughly, then transferred to a 96-well plate.
3. PD-L1 was diluted with Dilute Buffer, then added to the above 96-well plate.
4. PD-1 was diluted with Dilute Buffer and added to the above 96-well plate, which was then incubated at room temperature for 30 minutes.
5. A portion of anti-tag1-Eu and a portion of anti-tag2-XL665 were added to Detection Buffer, mixed thoroughly and transferred to the above 96-well plate.
6. The mixture in the above 96-well plate was incubated at room temperature for 1 to 24 hours.
7. HTRF values were read with Envision.
Background: In TR-FRET formats the signal depends on donor and acceptor labels being close together.

pIC50: −log10 of the molar value. A value given as a limit tells only on which side of the number the result lay.

Sequence of PD-1/PD-L1 (Q9NZQ7 19-238): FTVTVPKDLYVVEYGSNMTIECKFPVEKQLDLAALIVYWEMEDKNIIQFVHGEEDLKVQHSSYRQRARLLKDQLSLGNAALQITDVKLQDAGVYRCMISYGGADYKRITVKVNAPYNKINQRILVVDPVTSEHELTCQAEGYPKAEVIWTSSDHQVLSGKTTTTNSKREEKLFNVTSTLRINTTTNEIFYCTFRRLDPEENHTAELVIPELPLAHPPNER

Regarding `COc1nc(/C=C/c2cccc(-c3ccccc3)c2C)ccc1CNC1CCCCC1NC(C)=O` (centres unmarked) [Compound 42], the pIC50 was 5.96.

Take `COc1cc(/C=C/c2cccc(-c3ccccc3)c2C)cc(OC)c1CNC(CCO)C(=O)O` (centres unmarked) [Compound 43, (E)-2-(2,6-Dimethoxy-4-(2-(2-methylbiphenyl-3-yl)vinyl)benzylamino)-4-hydroxybutanoic Acid]: the pIC50 was 6.89. As for `COc1cc(/C=C/c2cccc(-c3ccccc3)c2C)cc(OC)c1CNC(C)(CO)C(=O)O` (centres unmarked) [Compound 44, (E)-2-(2,6-Dimethoxy-4-(2-(2-methylbiphenyl-3-yl)vinyl)benzylamino)-3-hydroxy-2-methylpropanoic Acid], the figure is 7.23. As for `COc1cc(/C=C/c2cccc(-c3ccccc3)c2C)cc(OC)c1CN[C@@](C)(CO)C(=O)O` [Compound 45, (S,E)-2-(2,6-Dimethoxy-4-(2-(2-methylbiphenyl-3-yl)vinyl)benzylamino)-3-hydroxy-2-methylpropanoic Acid], the figure is 7.31; as for `COc1cc(/C=C/c2cccc(-c3ccccc3)c2C)cc(OC)c1CN[C@](C)(CO)C(=O)O` [Compound 46, (R,E)-2-(2,6-Dimethoxy-4-(2-(2-methylbiphenyl-3-yl)vinyl)benzylamino)-3-hydroxy-2-methylpropanoic Acid], 7.32; as for `COc1cc(/C=C/c2cccc(-c3ccccc3)c2C)cc(OC)c1CN1CCCCC1(CO)C(=O)O` (centres unmarked) [Compound 47], 6.04. As for `COc1ccc(-c2cccc(/C=C/c3cc(OC)c(CN[C@@H](CO)C(=O)O)c(OC)c3)c2C)cc1` [Compound 48, (S,E)-2-(2,6-Dimethoxy-4-(2-(4′-methoxy-2-methylbiphenyl-3-yl)vinyl)benzylamino)-3-hydroxypropionic Acid], the figure is under 5.00. For `COC(=O)c1ccc(-c2cccc(/C=C/c3cc(OC)c(CNC(C)(CO)C(=O)O)c(OC)c3)c2C)cc1` (centres unmarked) [Compound 49, (E)-2-(2,6-Dimethoxy-4-(2-(4′-(methoxycarbonyl)-2-methylbiphenyl-3-yl)vinyl)benzylamino)-3-hydroxy-2-methylpropanoic Acid], the pIC50 is under 5.00. As for `COc1ccc(-c2cccc(/C=C/c3cc(OC)c(CNC(C)(CO)C(=O)O)c(OC)c3)c2C)cc1` (centres unmarked) [Compound 50, (E)-2-(2,6-Dimethoxy-4-(2-(4′-methoxy-2-methylbiphenyl-3-yl)vinyl)benzylamino)-3-hydroxy-2-methylpropionic Acid], the figure is 5.10; as for `COC(=O)c1cccc(-c2cccc(/C=C/c3cc(OC)c(CNC(C)(CO)C(=O)O)c(OC)c3)c2C)c1` (centres unmarked) [Compound 51, (E)-2-(2,6-Dimethoxy-4-(2-(3′-methoxycarbonyl-2-methylbiphenyl-3-yl)vinyl)benzylamino)-3-hydroxy-2-methylpropionic Acid], 6.09; as for `COc1cc(/C=C/c2cccc(-c3cccc(CO)c3)c2C)cc(OC)c1CNC(C)(CO)C(=O)O` (centres unmarked) [Compound 52, (E)-2-(2,6-Dimethoxy-4-(2-(3′-hydroxymethyl-2-methylbiphenyl-3-yl)vinyl)benzylamino)-3-hydroxy-2-methylpropionic Acid], under 5.00. As for `COc1cc(/C=C/c2cccc(-c3ccccc3)c2C)cc(OC)c1CNc1cccc(O)c1C(=O)O` [Compound 53, (E)-2-(2,6-Dimethoxy-4-(2-(2-methylbiphenyl-3-yl)vinyl)benzylamino)-6-hydroxybenzoic Acid], the figure is under 5.00. As for `COc1ccc(-c2cccc(/C=C/c3cc(OC)c(CNc4cccc(O)c4C(=O)O)c(OC)c3)c2C)cc1` [Compound 54, (E)-2-(2,6-Dimethoxy-4-(2-(4′-methoxy-2-methylbiphenyl-3-yl)vinyl)benzylamino)-6-hydroxybenzoic Acid], the figure is under 5.00. As to `COc1cc(/C=C/c2cccc(-c3ccc(C(N)=O)cc3)c2C)cc(OC)c1CNc1cccc(O)c1C(=O)O` [Compound 55, (E)-2-(2,6-Dimethoxy-4-(2-(4′-carbamoyl-2-methylbiphenyl-3-yl)vinyl)benzylamino)-6-hydroxy-benzoic Acid], the pIC50 is 5.35. The figure for `COc1cc(/C=C/c2cccc(-c3ccc4c(c3)OCCO4)c2C)cc(OC)c1CNC(CO)C(=O)O` (centres unmarked) [Compound 56, (E)-2-(4-(3-(2,3-Dihydrobenzo[b][1,4]dioxin-6-yl)-2-methylstyryl)-2,6-dimethoxybenzylamino)-3-hydroxypropanoic Acid] is 7.00; for `COc1cc(/C=C/c2cccc(-c3ccc4c(c3)OCCO4)c2C)cc(OC)c1CNC(C)(CO)C(=O)O` (centres unmarked) [Compound 57, (E)-2-(4-(3-(2,3-Dihydrobenzo[b][1,4]dioxin-6-yl)-2-methylstyryl)-2,6-dimethoxybenzylamino)-3-hydroxy-2-methylpropanoic Acid] it is 7.15. Consider `COc1cc(/C=C/c2cccc(-c3ccccc3)c2C)cc(OC)c1CNc1ccc(C(=O)O)c(O)c1` [Compound 58, (E)-4-(2,6-Dimethoxy-4-(2-(2-methylbiphenyl-3-yl)vinyl)benzylamino)-2-hydroxybenzoic Acid], for which the pIC50 was under 5.00. With `COc1cc(/C=C/c2cccc(-c3ccccc3)c2C)cc(OC)c1CNc1ccc(O)c(C(=O)O)c1` [Compound 59, (E)-5-(2,6-Dimethoxy-4-(2-(2-methylbiphenyl-3-yl)vinyl)benzylamino)-2-hydroxybenzoic Acid], the pIC50 is under 5.00. As for `COc1cc(N2C=CCN2c2cccc(-c3ccccc3)c2C)cc(OC)c1CNC(CO)C(=O)O` (centres unmarked) [Compound 60, 2-(2,6-Dimethoxy-4-(2-(2-methylbiphenyl-3-yl)-1H-pyrazol-1-yl)benzylamino)-3-hydroxypropanoic Acid], the figure is under 5.00.

As for `COc1cc(/C=C/c2cccc(-c3cnn(C)c3)c2C)cc(OC)c1CN[C@@H](CO)C(=O)O` [Compound 61], the pIC50 was under 5.00. The figure for `COc1cc(/C=C/c2cccc(-c3ccc4c(c3)OCCO4)c2C)ccc1CN[C@@H](CO)C(=O)O` [Compound 62, (S,E)-2-(4-(3-(2,3-Dihydrobenzo[b][1,4]dioxin-6-yl)-2-methylstyryl)-2-methoxybenzylamino)-3-hydroxypropanoic Acid] is 6.92; for `COc1cc(/C=C/c2cncc(-c3ccccc3)c2C)cc(OC)c1CN[C@@H](CO)C(=O)O` [Compound 63, (S,E)-2-(2,6-dimethoxy-4-(2-(4-methyl-5-phenylpyridin-3-yl)vinyl)benzylamino)-3-hydroxypropanoic Acid] it is 5.41; for `COc1cc(/C=C/c2cncc(-c3ccc4c(c3)OCCO4)c2C)cc(OC)c1CN[C@@H](CO)C(=O)O` [Compound 64, (S,E)-2-(4-(2-(5-(2,3-Dihydrobenzo[b][1,4]dioxin-6-yl)-4-methylpyridin-3-yl)vinyl)-2,6-dimethoxybenzylamino)-3-hydroxypropanoic Acid] it is 5.38. The figure for `COc1cc(/C=C/c2cncc(-c3ccccc3)c2C)cc(OC)c1CNC(C)(CO)C(=O)O` (centres unmarked) [Compound 65, (E)-2-(2,6-Dimethoxy-4-(2-(4-methyl-5-phenylpyridin-3-yl)vinyl)benzylamino)-3-hydroxy-2-methylpropionic Acid] is 5.70. The figure for `COc1cc(/C=C/c2cncc(-c3ccc4c(c3)OCCO4)c2C)cc(OC)c1CNC(C)(CO)C(=O)O` (centres unmarked) [Compound 66, (E)-2-(4-(2-(5-(2,3-Dihydrobenzo[b][1,4]dioxin-6-yl)-4-methylpyridin-3-yl)vinyl)-2,6-dimethoxybenzylamino)-3-hydroxy-2-methylpropanoic Acid] is 5.54; for `Cc1c(/C=C/c2cc(CN3CCC[C@H]3CO)ccc2C(F)(F)F)cccc1-c1ccc2c(c1)OCCO2` [Compound 67, (S,E)-(1-(3-(3-(2,3-Dihydrobenzo[b][1,4]dioxin-6-yl)-2-methylstyryl)-4-(trifluoromethyl)benzyl)pyrrolidin-2-yl)methanol] it is 5.62; for `Cc1cc(CNC(CO)C(=O)O)cnc1/C=C/c1cccc(-c2ccc3c(c2)OCCO3)c1C` (centres unmarked) [Compound 69, (E)-2-((6-(3-(2,3-Dihydrobenzo[b][1,4]dioxin-6-yl)-2-methylstyryl)-5-methylpyridin-3-yl)methylamino)-3-hydroxypropanoic Acid] it is 7.44. On to “(R,E)-2-(3-Chloro-4-(2-(2-methylbiphenyl-3-yl)vinyl)benzylamino)-3-hydroxypropionamide [Compound 34]”, for which the pIC50 is 6.47.

Turning to “(S,E)-2-(3-Chloro-4-(2-(2-methylbiphenyl-3-yl)vinyl)benzylamino)-3-hydroxypropanamide [Compound 33]”, the pIC50 was 6.32.
